# Assay results taken from patent US11384106B2, “Metal tricarbonyl complexes comprising substituted iminodiactic acid ligands and uses as radioisotope tracers” (priority 2015, dated 2022).
# Assays:
# [1] = Stability of ^18F radiotracer solution (pH 7) by HPLC; format: physicochemical; details: incubated for 23 hours
# Description: Re(CO)3(^18FFEDA) (3) was prepared by reacting the corresponding tosyl precursor, rheniumtricarbonyl-N-ethyltosylate iminodiacetate, Re(CO)3(TsDA), with [18F]fluoride ion (^18F) in anhydrous acetonitrile in the presence of K2CO3 and Kryptofix 222 at 110° C. for 20 min in a chemical processing control unit (CPCU). The resulting radiolabeled product was purified by semi-preparative high performance liquid chromatography (HPLC) using a Waters XTerra Prep RP 18 column (5 jam, 19×100 mm) and eluted with a mobile phase of 0.05 M triethylammonium phosphate (TEAP) buffer (pH=7)/ethanol (80:20 v/v) at a flow rate of 6 mL/min. The solution of the ^18F radiotracer (pH 7) was analyzed by HPLC for stability for up to 23 h.
# [2] = relative to ^131I-OIH; cited from earlier work
# [3] = Evaluation in rats using ^131I-OIH as internal control (blood clearance, renal excretion, urine metabolites); format: in vivo; details: for % injected dose in the urine, as % of that of ^131I-OIH: relative to ^131I-OIH internal control
# Description: (§1) ^99mTc(CO)^3(FEDA) was evaluated in rats using ^131I-OIH as an internal control; urine was analyzed for metabolites. Plasma protein binding (PPB) and erythrocyte uptake (RCB) were determined from the 10 min blood samples. The Re(CO)3 analog was prepared for structural characterization.
# plasma protein = experiment: Plasma protein binding (PPB) from 10 min blood samples; format: in vitro ADME; details: rats
# Description: as §1
# erythrocyte = experiment: Erythrocyte uptake (RCB) from 10 min blood samples; format: in vitro ADME; details: rats
# Description: as §1
# [4] = Stability of ^99mTc tracer at physiological pH / physiological conditions
molecule,measurement,setting,value
Re(CO)3(N-(2-^18fluoroethyl)iminodiacetate) [Re(CO)3(^18FFEDA)],Stability by HPLC analysis after incubation,[1],only intact
"O=C([O-])CN=C([O-])CN=C([O-])CN=C([O-])C[S-].[O-2].[Tc+4] [^99mTc-MAG3, ^99mTc-mercaptoacetyltriglycine]",Clearance compared to ^131I-OIH,[2],50-65%
^99mTc(CO)3(N-(2-fluoroethyl)iminodiacetate) [^99mTc(CO)3(FEDA)],Clearance compared with ^131I-OIH,[3]; compared with gold standard ^131I-OIH,comparable to the gold standard
same,Renal excretion,"[3]; rat studies, compared with ^99mTc-MAG3",rapid renal excretion
same,Blood clearance,[3]; rats,rapid blood clearance
same,Specificity for renal excretion,[3]; rats,high specificity for renal excretion
same,Uptake in other organs,[3]; rats,lack of significant uptake in other organs
same,"% injected dose in the urine, as % of that of ^131I-OIH","[3]; rats, 10 min after injection",100%
same,"% injected dose in the urine, as % of that of ^131I-OIH","[3]; rats, 60 min after injection",99%
same,Metabolites in urine (form in which the tracer is excreted),"[3]; rats, urine analyzed for metabolites",secreted intact in the urine
same,Plasma protein binding (PPB),plasma protein,61%
same,Erythrocyte uptake (RCB),erythrocyte,20%
same,Stability (time stable),[4]; physiological conditions,at least 1 d
same,Stability (time stable),[4]; physiological pH,≥ 24 h
